From ChEMBL document CHEMBL1138730, “The synthesis and evaluation of [2.2.1]-bicycloazahydantoins as androgen receptor antagonists” (Bioorg Med Chem Lett, 2004)

What was measured:
[1] = target: T1, Androgen receptor (Homo sapiens, UniProt P10275)
T1 sequence (P10275 whole entry): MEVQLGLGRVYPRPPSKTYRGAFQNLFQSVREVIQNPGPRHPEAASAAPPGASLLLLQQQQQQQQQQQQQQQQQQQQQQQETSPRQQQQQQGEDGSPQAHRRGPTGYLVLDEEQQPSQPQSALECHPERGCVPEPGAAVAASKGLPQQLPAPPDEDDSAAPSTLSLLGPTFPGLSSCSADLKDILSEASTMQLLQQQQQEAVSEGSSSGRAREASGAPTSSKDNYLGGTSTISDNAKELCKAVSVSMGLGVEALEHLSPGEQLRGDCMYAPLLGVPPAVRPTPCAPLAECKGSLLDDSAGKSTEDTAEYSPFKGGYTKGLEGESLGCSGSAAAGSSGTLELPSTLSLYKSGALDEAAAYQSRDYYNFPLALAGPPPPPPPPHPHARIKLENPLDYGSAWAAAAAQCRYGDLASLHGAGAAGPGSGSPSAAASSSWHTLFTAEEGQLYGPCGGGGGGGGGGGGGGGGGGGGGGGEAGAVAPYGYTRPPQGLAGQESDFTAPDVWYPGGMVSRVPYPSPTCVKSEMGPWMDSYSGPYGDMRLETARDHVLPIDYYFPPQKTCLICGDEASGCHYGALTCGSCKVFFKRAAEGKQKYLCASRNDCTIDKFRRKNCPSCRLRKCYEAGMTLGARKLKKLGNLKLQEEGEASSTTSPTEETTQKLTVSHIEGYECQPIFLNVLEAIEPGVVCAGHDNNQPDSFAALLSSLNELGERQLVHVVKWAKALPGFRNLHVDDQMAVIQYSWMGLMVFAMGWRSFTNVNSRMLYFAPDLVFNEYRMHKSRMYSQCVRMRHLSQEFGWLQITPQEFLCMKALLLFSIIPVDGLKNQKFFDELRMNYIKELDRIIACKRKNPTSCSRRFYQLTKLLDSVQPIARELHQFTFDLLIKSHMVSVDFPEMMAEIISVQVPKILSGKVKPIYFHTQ
Description: In vitro antagonistic activity against androgen receptor of MDA-453 cells

[2] = target: Androgen receptor (Homo sapiens, UniProt P10275); settings: lncap
Description: In vitro antagonistic activity against mutant androgen receptor of LNCap cells

[3] = target: T1, Androgen receptor; experiment: Displacement of [3H]DHT from androgen receptor of human MDA-453 cells

SMILES | IC50 [1] | IC50 [2] | Ki [3]
O=C1[C@@H]2[C@@H]3CC[C@@H](C3)[C@@H]2C(=O)N1c1ccc([N+](=O)[O-])c(C(F)(F)F)c1 | 10 nM | > 5000 nM | 5 nM
O=C1[C@H]2[C@H]3CC[C@H](C3)N2C(=O)N1c1ccc([N+](=O)[O-])c2ccccc12 | 1300 nM | > 5000 nM | 1 nM
CC(C)(C)OC(=O)N1C[C@@H]2C[C@H]1[C@@H]1C(=O)N(c3ccc(C#N)c(C(F)(F)F)c3)C(=O)N21 | 770 nM | 4380 nM | 40 nM
N#Cc1ccc(N2C(=O)[C@H]3[C@@H]4C[C@@H](CN4C(=O)Oc4ccc(F)cc4)N3C2=O)c2ccccc12 | 580 nM | 1870 nM | 40 nM
N#Cc1ccc(N2C(=O)[C@H]3[C@@H]4C[C@@H](CN4C(=O)Oc4ccc(F)cc4)N3C2=O)cc1C(F)(F)F | 200 nM | 3920 nM | 10 nM
CCCCc1ccc(C(=O)N2C[C@@H]3C[C@H]2[C@@H]2C(=O)N(c4ccc(C#N)cc4)C(=O)N32)cc1 | 580 nM | 6800 nM | 100 nM
CC(C)(C)OC(=O)N1C[C@H]2C[C@@H]1[C@H]1C(=O)N(c3ccc(C#N)c(C(F)(F)F)c3)C(=O)N21 | > 5000 nM | > 5000 nM | > 5000 nM
CC(C)(C)OC(=O)N1C[C@@H]2C[C@H]1[C@@H]1C(=O)N(c3ccc(C#N)cc3)C(=O)N21 | 2540 nM | 4970 nM | 240 nM
N#Cc1ccc(N2C(=O)[C@H]3[C@@H]4C[C@@H](CN4C(=O)c4ccccc4)N3C2=O)cc1C(F)(F)F | 300 nM | 2600 nM | 120 nM
CC(C)(C)OC(=O)N1C[C@@H]2C[C@H]1[C@@H]1C(=O)N(c3ccc([N+](=O)[O-])c4ccccc34)C(=O)N21 | 3320 nM | 4430 nM | 60 nM
CC(C)(C)OC(=O)N1C[C@@H]2C[C@H]1[C@H]1C(=O)N(c3ccc([N+](=O)[O-])c4ccccc34)C(=O)N21 | 1330 nM | 5860 nM | 
CC(C)(C)OC(=O)N1C[C@@H]2C[C@H]1[C@H]1C(=O)N(c3ccc(C#N)cc3)C(=O)N21 | > 5000 nM | 3510 nM | 190 nM
O=C1[C@H]2[C@@H]3C[C@@H](CN3C(=O)Oc3ccc(F)cc3)N2C(=O)N1c1ccc([N+](=O)[O-])c2ccccc12 | 340 nM | 30000 nM | 10 nM
CCCCc1ccc(C(=O)N2C[C@@H]3C[C@H]2[C@@H]2C(=O)N(c4ccc([N+](=O)[O-])cc4)C(=O)N32)cc1 | 60 nM | 4750 nM | 70 nM
CC(C)(C)OC(=O)N1C[C@@H]2C[C@H]1[C@H]1C(=O)N(c3ccc(C#N)c(C(F)(F)F)c3)C(=O)N21 | 640 nM | > 5000 nM | 180 nM
O=C1[C@H]2[C@@H]3C[C@@H](CN3C(=O)c3ccccc3)N2C(=O)N1c1ccc([N+](=O)[O-])cc1 | > 5000 nM | 2540 nM | 10 nM
CC(C)(C)OC(=O)N1C[C@@H]2C[C@H]1[C@]1(C)C(=O)N(c3ccc(C#N)c(C(F)(F)F)c3)C(=O)N21 | 780 nM | 10400 nM | 
CC(C)(C)OC(=O)N1C[C@H]2C[C@@H]1[C@H]1C(=O)N(c3ccc([N+](=O)[O-])cc3)C(=O)N21 | 250 nM | 2390 nM | 230 nM
